The structures appear in SMILES notation. Calls of active or inactive are those of the source. How the calls were made is not given here.

In the assay the target is UPR counterscreen luciferase reporter, luminescence. As to the kind of experiment: activators in UPR counterscreen luciferase reporter, dose response, counter-screen for adaptive UPR activator project, cell-based, luminescence (AID 489027). In general terms: The purpose of a counterscreen is to sort out artefacts and off-target activity.
In general, EC50 refers to the midpoint of the concentration-response curve. Consider `N#Cc1ccc(-c2ccc(Cl)cc2)nc1SCC(=O)c1cccc(Cl)c1`, for which the EC50 was 8.05 µM.

`O=C(COC(=O)/C=C/c1cn(-c2ccccc2)nc1-c1cccnc1)Nc1ccc(Cl)cc1Cl`: the EC50 was 14.3 µM. The same measure for `COc1cc2nc(N3CCN(c4cc(C)ccc4C)CC3)nc(N)c2cc1OC`: 9.19 µM. Next, `COc1cccc2sc(N3CCN(c4nc5ccccc5s4)CC3)nc12`: 16.8 µM. The same measure for `Oc1ccc(/C=N/Nc2ncnc3c2ncn3Cc2ccccc2)cc1O`: 7.62 µM; for `CCCNC(=O)c1c(N)n(-c2ccc3c(c2)OCO3)c2nc3ccccc3nc12`: > 80 µM (inactive); for `Brc1ccc(C2=Nn3c(nnc3-c3n[nH]c4c3CCC4)SC2)cc1`: “inactive”.

Take `CN1C(=O)/C(=C/c2ccc(C(=O)NC3CCCC3)cc2)Oc2ccccc21`: the EC50 is > 80 µM (inactive). `Oc1cc(-c2ccc(N3CCCCC3)nc2)cc2cccnc12`: the EC50 is > 80 µM (inactive).

On to `C/C(Cl)=C\Cn1c(O)c(N=NC(N)=S)c2cc(Br)ccc21`, for which the EC50 was 17.3 µM. As for `CC1=CC(C)[C@H](/C=N/n2c(=O)[nH]c3c([nH]c4ccc(Br)cc43)c2=O)C(C)C1` (stereo partly specified), the EC50 result was “inactive”. With `Cc1c(O)cc2c(c1O)C(=O)CC(c1ccccc1)O2` (stereo unspecified), the EC50 was 10.9 µM. Take `COc1cc([N+](=O)[O-])cc(/C=N/NC(=O)c2ccc(NC(=O)c3ccc(C)cc3)cc2)c1O`: the EC50 entry is “inactive”.

For `CCOc1cc2c3c(c1)C(C)=CC(C)(C)N3C(=O)C2=O`, the EC50 result was “inactive”. Next, `CC(C)N(C(=O)[C@H]1C[C@H](CC(=O)NCc2cccc(C(F)(F)F)c2)C(=O)N2CCc3c([nH]c4ccc(Cl)cc34)[C@]12C)C(C)C`: “inactive”; `CN(C)S(=O)(=O)c1ccc(N2CCCC2)c(C(=O)Nc2nc3ccccc3s2)c1`: 12.7 µM. The same measure for `COc1ccc(-c2coc3cc4oc(=O)cc(-c5ccccc5)c4cc23)cc1F`: “inactive”; for `O=[N+]([O-])c1ccc(N/N=C/c2cccc(O)c2O)c(S(=O)(=O)N2CCOCC2)c1`: 7.48 µM; for `Oc1ccc(CN2CCC(Cc3ccccc3)CC2)c2cccnc12`: 5.55 µM.

In the case of `CC1(C)CC[C@@]23CC[C@]4(C)[C@@](OC2=O)(C3C1)[C@H]1O[C@H]1C1[C@@]2(C)CC[C@H](O)C(C)(C)C2CC[C@]14C` (stereo partly specified), the EC50 entry is “inactive”.

`FC(F)(F)c1nc2ccccc2n2c(-c3ccc(Cl)cc3)nnc12`: the EC50 is 13.6 µM. The same measure for `Oc1ccc(/C=N/Nc2nc(N3CCCC3)nc(N3CCCC3)n2)cc1O`: 3.95 µM; for `N#C/C(=C/c1ccc(N2CCCC2)c([N+](=O)[O-])c1)c1nc2ccccc2[nH]1`: > 80 µM (inactive); for `CC(C)N=C(NS(=O)(=O)c1ccccc1)C(Cl)(Cl)Cl`: > 80 µM (inactive).

In the case of `Cc1cc(C)c(NC(=O)CSc2nc(COc3ccccc3)nc3ccccc23)c(C)c1`, the EC50 entry was “inactive”. The same measure for `O=C(NCCCn1ccnc1)c1nn2c(C(F)(F)F)cc(-c3ccc(Br)cc3)nc2c1Cl`: > 80 µM (inactive); for `CCC(Sc1nnc2c3ccccc3n(CC)c2n1)C(=O)Nc1sc2c(c1C#N)CCCC2` (stereo unspecified): “inactive”; for `COc1ccc(N2CCN(Cc3cc(=O)oc4cc(-c5ccccc5)c(O)cc34)CC2)cc1`: > 80 µM (inactive). In the case of `CCc1ccc(NC(=O)C(CC)Sc2nc3cc4c(cc3c(=O)n2Cc2ccco2)OCO4)cc1` (stereo unspecified), the EC50 was > 80 µM (inactive). With `Cc1ccc(NC(=O)Cn2c(/C=C/c3ccccc3)nc3ccccc32)cc1C`, the EC50 was > 80 µM (inactive). Turning to `CCN(CC)CCn1c(SCC(=O)Nc2ccc(F)cc2)nc2c(sc3ccccc32)c1=O`, the EC50 is > 80 µM (inactive). Turning to `O=Cc1cc2ccccc2nc1SCc1ccc(Cl)c(Cl)c1`, the EC50 entry is “inactive”. As to `Oc1ccc(/C=N/Nc2cc(N3CCOCC3)nc(N3CCOCC3)n2)cc1O`, the EC50 was 3.8 µM. Next, `COc1ccc2[nH]c3c(c2c1)CCN1C(=O)C(CC(=O)NC/C=C(\C)CCC=C(C)C)C[C@H](C(=O)N(C(C)C)C(C)C)[C@@]31C` (stereo partly specified): “inactive”; `Cc1c(NC(=O)CSc2ccc(Cl)cc2)cccc1-c1nc2cc(Cl)ccc2o1`: > 80 µM (inactive). Next, `N#Cc1cnn2c1nc(N1CCCCC1)c1ccccc12`: > 80 µM (inactive); `O=C(/C=C/c1ccco1)NC(=S)Nc1ccc(O)c(-c2nc3ccccc3s2)c1`: 11 µM; `O=C(Nc1cccc(-c2nc3cccnc3s2)c1)C1c2ccccc2Oc2ccccc21`: 4.35 µM. As to `CC1=C(CC/C(C)=N/NC(N)=S)C(C)(C)CCC1`, the EC50 was 13.9 µM. Turning to `COc1ccc(-c2csc(NC(=S)NC(=O)/C=C/c3ccccc3)n2)cc1Br`, the EC50 result was “inactive”.

Turning to `Oc1cccc2ccc(/C=C/c3ccc(Br)s3)nc12`, the EC50 result is “inactive”. As for `COc1ccc(C(=O)Nc2cccc(/C=C/c3nc4ccccc4c(=O)[nH]3)c2)cc1`, the EC50 was > 80 µM (inactive). The same measure for `C/C(=N/Nc1cc(-c2ccccc2)nc(-c2ccccc2)n1)c1ccc(O)cc1`: 15.4 µM; for `CCCCCCCCCn1c2c(c(=N)c3c1CCC3)CCCC2`: 9 µM.

On to `N#C/C(=C\Nc1ccc2cn[nH]c2c1)c1nc(-c2ccc(Cl)cc2)cs1`, for which the EC50 entry was “inactive”. The same measure for `CC(NCC(O)COCCC12CC3CC(CC(C3)C1)C2)c1ccccc1` (stereo unspecified): > 80 µM (inactive). As to `COc1ccc(OCc2n(CC(=O)OC3CC(C)CCC3C(C)C)c3ccccc3[n+]2C)cc1` (stereo unspecified), the EC50 is > 80 µM (inactive). The same measure for `Cc1ccc(C(=O)N2N=C(c3ccc(Br)cc3)CC2c2ccccc2O)cc1` (stereo unspecified): 14.3 µM. Take `Cc1cc(NC(=O)CSc2nc3sc(C)c(C)c3c(=O)n2C2CCCC2)no1`: the EC50 is > 80 µM (inactive).

As for `O=C(CC1C[C@H](C(=O)N2CCCCC2)[C@@]2(CCc3ccccc3)c3[nH]c4ccccc4c3CCN2C1=O)NCCC1=CCCCC1` (stereo partly specified), the EC50 entry is “inactive”.

`O=C1NC(=O)N(Cc2ccccc2)C(=O)/C1=C\c1ccco1`: the EC50 result is “inactive”. As for `OCCNc1nc(Nc2ccc(Br)cc2)nc2ccccc12`, the EC50 was 5.82 µM. `Cc1ccc2c(c1)C(=O)C(=O)N2Cc1ccc(Cl)cc1`: the EC50 result was “inactive”. With `CC(C)(C)C(=O)NC(=S)NNC(=O)C(c1ccccc1)c1ccccc1`, the EC50 was 2.14 µM. Next, `Cc1ccc2c(c1)C(c1ccc(N3CCOCC3)cc1)=NNC(c1cccs1)=N2`: “inactive”; `COc1ccc(CNC(=O)/C(C#N)=C/c2cccc(OC)c2OC)cc1`: “inactive”. The same measure for `Cc1cccc(NC(=O)/C(C#N)=C/c2cn(CC(=O)NCc3ccco3)c3ccccc23)c1C`: > 80 µM (inactive); for `CCCNC(=O)/C(C#N)=C1\N=C(NC(=O)c2cccs2)c2ccccc21`: > 80 µM (inactive); for `CCOC(=S)SCC(=O)Nc1nc(-c2ccc(Br)cc2)cs1`: 13 µM.

Take `O=C(Nc1ccc2nc3n(c(=O)c2c1)CCCCC3)c1ccccc1Cl`: the EC50 is > 80 µM (inactive).

For `Cc1ccc2c(c1)c(N=NC(N)=S)c(O)n2Cc1ccccc1`, the EC50 was > 80 µM (inactive).

Consider `COc1ccc(N=c2oc3ccc(OC)cc3cc2-c2nc3ccccc3[nH]2)cc1`, for which the EC50 is 6.79 µM.

Turning to `COc1ccc2nc(NC(=O)c3cccc(-c4cc5ccccc5oc4=O)c3)sc2c1`, the EC50 was > 80 µM (inactive). As to `NC(=S)N/N=C/c1ccc(C23CC4CC(CC(C4)C2)C3)cc1`, the EC50 was 13.8 µM. In the case of `Brc1ccc2c(c1)C(c1ccc(N3CCOCC3)cc1)=NNC(c1cccs1)=N2`, the EC50 entry is “inactive”. The same measure for `CCCC[C@@H](C)C[C@@H](C)C(=O)N(C)[C@@H](CC(C)C)C(=O)N[C@H](C(=O)N(C)[C@H](C(=O)N1C[C@@H](O)C[C@H]1C(=O)N1C(=O)C=C[C@@H]1C)C(C)C)C(C)OC(C)=O` (stereo partly specified): 7.75 µM; for `CC(C)C(=O)N(c1cc2sc(=O)oc2c2ccccc12)S(=O)(=O)c1cccs1`: 16.3 µM; for `O=c1cc(CN2CCN(c3ccccc3)CC2)c2cc(O)c(-c3ccccc3)cc2o1`: 7 µM.

For the compound `CC1=C(/C=C/C(C)=C/C=C/C(C)=C/C(=O)Nc2ccc(O)cc2)C(C)(C)CCC1`, the EC50 was 8.45 µM. Consider `COc1cc(-c2ccc3oc(-c4ccsc4)cc3c2)cc(OC)c1OC`, for which the EC50 was > 80 µM (inactive). Next, `COc1ccc(C(=O)Oc2cc3c4c(c2)C(C)=CC(C)(C)N4C(=O)C3=O)cc1OC`: “inactive”; `CCOc1ccc(C(=O)Nc2cc(-c3nc4ccccc4[nH]3)ccc2Cl)cc1[N+](=O)[O-]`: 17.7 µM. The same measure for `O=C(NCCc1ccc(O)c(O)c1)C1COc2ccccc2O1` (stereo unspecified): 16.8 µM.

On to `Oc1cc(-c2cccnc2)cc2cccnc12`, for which the EC50 result is “inactive”. Next, `COc1ccc(C2c3ccc4ccccc4c3Oc3ncn(CCCN(C)C)c(=N)c32)cc1` (stereo unspecified): 8.25 µM. Take `CCC(=O)Nc1cccc(C(=O)/C=C/c2ccc(F)cc2)c1`: the EC50 is 12.1 µM.

Take `COc1cc2c(cc1NC(=S)NC(=O)/C=C/c1ccco1)oc1ccccc12`: the EC50 result was “inactive”. In the case of `CCOC(=O)c1c(NC(C)=O)sc2c(OCC(O)CNC(C)(C)C)c(Br)ccc12` (stereo unspecified), the EC50 was > 80 µM (inactive).

For the compound `COc1cc(NC(=O)c2cncc(-c3ccc(C#N)cc3)c2)cc(C(=O)Nc2cccc(C(F)(F)F)c2)c1`, the EC50 result is “inactive”. The same measure for `Nc1nc(-c2cc(O)ccc2[N+](=O)[O-])cc(-c2ccccc2)c1[N+](=O)[O-]`: 7.88 µM; for `O=C(NCC1CC1)c1cccc2c1C(=O)c1ccc(-c3ccc(OC(F)(F)F)cc3)cc1S2(=O)=O`: > 80 µM (inactive); for `Cc1ccc(-n2nc3cc(C)c(NC(=S)NC(=O)/C=C/c4ccco4)cc3n2)cc1`: 11.6 µM. As to `CCOc1cc(/C=C2/C(=N)N3C=CSC3=NC2=O)ccc1OCCCOc1ccccc1C`, the EC50 was 17.7 µM. Next, `COc1ccc(/C=C/c2nc3cc(-c4ccccc4)ccc3o2)cc1O`: 14.6 µM; `Cc1ccc(-c2cc(C(F)F)n3ncc(C(=O)N4CCc5ccccc54)c3n2)cc1`: > 80 µM (inactive). The same measure for `Cc1ccc2nc(Nc3nc(-c4ccccc4)cc(=O)[nH]3)nc(C)c2c1`: > 80 µM (inactive).

The values are drawn from PubChem BioAssay AID489027 (Sanford-Burnham Center for Chemical Genomics, 2010).
